Assay results: patent US20140011799A1 (Bristol-Myers Squibb Company, priority 2012, published 2014)

Columns and labels:
hepatic lipase (HL) = molecular target: T1, hepatic lipase (HL) (Homo sapiens, UniProt P11150); assay: Hepatic lipase (HL) enzymatic assay, fluorescent substrate A10070 in DMPG vesicles; format: biochemical; conditions: HL partially purified from conditioned media of COS cells; compound preincubated 30 min at 37° C; read-out: HL IC50
T1 construct: made in house; host or cells: COS cells (conditioned medium, partially purified)
T1 sequence (P11150 23-499): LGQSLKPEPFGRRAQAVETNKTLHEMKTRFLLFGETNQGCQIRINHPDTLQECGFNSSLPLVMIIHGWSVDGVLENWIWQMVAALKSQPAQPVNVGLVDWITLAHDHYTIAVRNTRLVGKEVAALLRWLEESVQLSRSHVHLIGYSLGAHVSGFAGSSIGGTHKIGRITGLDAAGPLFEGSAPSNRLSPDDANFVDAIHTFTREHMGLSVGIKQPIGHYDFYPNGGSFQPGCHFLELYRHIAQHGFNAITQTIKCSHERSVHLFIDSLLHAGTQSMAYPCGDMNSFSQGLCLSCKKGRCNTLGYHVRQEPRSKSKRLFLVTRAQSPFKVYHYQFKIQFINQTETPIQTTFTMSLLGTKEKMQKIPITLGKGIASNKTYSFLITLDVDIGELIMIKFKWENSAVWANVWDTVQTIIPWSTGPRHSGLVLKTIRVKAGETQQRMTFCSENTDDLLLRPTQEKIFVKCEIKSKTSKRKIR
How it was run: (§1)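 EL from conditioned medium of HT-1080 cells engineered to overexpress endogenous EL; HL partially purified from conditioned medium of HL-overexpressing COS cells. Enzyme preincubated with compound 30 min at 37° C in 50 mM HEPES pH 8.0, 50 mM NaCl, 1 mM CaCl2; DMPG vesicles carrying FRET substrate (0.11 mole fraction) then added.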

Endothelial lipase (EL) = molecular target: T2, Endothelial lipase (EL) (Homo sapiens, UniProt Q9Y5X9); assay: Endothelial lipase (EL) enzymatic assay, fluorescent substrate A10070 in DMPG vesicles; format: biochemical; conditions: EL from conditioned media of HT-1080 cells; compound preincubated 30 min at 37° C; read-out: EL IC50
T2 construct: HT-1080 cells that were transformed using RAGE technology (Athersys) to overexpress endogenous EL; endogenous in cells; conditioned medium used
T2 sequence (Q9Y5X9 21-500): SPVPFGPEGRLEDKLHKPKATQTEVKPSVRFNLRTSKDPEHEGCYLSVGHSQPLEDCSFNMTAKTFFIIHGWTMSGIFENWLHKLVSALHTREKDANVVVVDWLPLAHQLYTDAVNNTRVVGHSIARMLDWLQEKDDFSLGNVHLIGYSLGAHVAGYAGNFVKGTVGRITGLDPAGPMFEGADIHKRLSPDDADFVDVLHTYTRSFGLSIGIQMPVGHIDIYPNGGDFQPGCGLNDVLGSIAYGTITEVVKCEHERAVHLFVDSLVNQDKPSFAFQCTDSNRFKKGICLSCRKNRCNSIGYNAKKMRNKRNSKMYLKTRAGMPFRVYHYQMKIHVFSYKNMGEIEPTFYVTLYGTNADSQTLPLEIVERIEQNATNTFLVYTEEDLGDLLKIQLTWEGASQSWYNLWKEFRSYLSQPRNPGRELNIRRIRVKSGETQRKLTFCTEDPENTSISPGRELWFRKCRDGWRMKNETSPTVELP
How it was run: as §1

Structure (SMILES)	IC50 (hepatic lipase (HL)) [nM]	IC50 (Endothelial lipase (EL)) [nM]
COCCS(=O)(=O)C(c1nnc(CNS(N)(=O)=O)o1)c1nc2ccc(-c3cccc(C(=O)N4CCN(C)CC4)c3)cc2s1 (stereo not shown) [Example 200, N-((5-(((2-methoxyethyl)sulfonyl)(6-(3-((4-methyl-1-piperazinyl)carbonyl)phenyl)-1,3-benzothiazol-2-yl)methyl)-1,3,4-oxadiazol-2-yl)methyl)sulfamide]	201	< 10
CN(C)C(=O)c1ccc(-c2ccc3nc(C(c4nnc(CNS(=O)(=O)NC(=O)OC(C)(C)C)o4)S(=O)(=O)Cc4ccccc4)sc3c2)cc1Cl (stereo not shown) [Example 141, tert-butyl (((5-((benzylsulfonyl)(6-(3-chloro-4-(dimethylcarbamoyl)phenyl)-1,3-benzothiazol-2-yl)methyl)-1,3,4-oxadiazol-2-yl)methyl)sulfamoyl) carbamate]	50	< 10
NCCS(=O)(=O)C(c1nnc(CC2SC(=O)NC2=O)o1)c1nc2ccc(-c3ccccc3)cc2s1 (stereo not shown) [Example 184, 5-((5-(((2-aminoethyl)sulfonyl)(6-phenyl-1,3-benzothiazol-2-yl)methyl)-1,3,4-oxadiazol-2-yl)methyl)-1,3-thiazolidine-2,4-dione]	< 10	< 10
CC1(O)CN(C(=O)c2cccc(-c3ccc4nc(C(c5nnc(CC6(C)NC(=O)NC6=O)o5)S(C)(=O)=O)sc4c3)c2)C1 (stereo not shown) [Example 204, 5-{[5-({6-[3-(3-hydroxy-3-methylazetidine-1-carbonyl)phenyl]-1,3-benzothiazol-2-yl} (methanesulfonyl)methyl)-1,3,4-oxadiazol-2-yl]methyl}-5-methyl-imidazolidine-2,4-dione]	783	17
CS(=O)(=O)C(c1nnc(CC2SC(=O)NC2=O)o1)c1nc2cc(F)c(-c3ccccc3)cc2s1 (stereo not shown) [Example 160, 5-((5-((5-fluoro-6-phenyl-1,3-benzothiazol-2-yl)(methylsulfonyl)methyl)-1,3,4-oxadiazol-2-yl)methyl)-1,3-thiazolidine-2,4-dione]	13	< 10
CS(=O)(=O)C(c1nnc(CNS(N)(=O)=O)o1)c1nc2ccc(-c3cccc(C(=O)N4CC(F)(F)C4)c3)cc2s1 (stereo not shown) [Example 202, N-((5-((6-(3-((3,3-difluoro-1-azetidinyl)carbonyl)phenyl)-1,3-benzothiazol-2-yl)(methylsulfonyl)methyl)-1,3,4-oxadiazol-2-yl)methyl)sulfamide]	35	< 10
CC(C)(C)[C@H](O)C(=O)NCc1nnc(C(c2nc3ccc(-c4ccccc4)cc3s2)S(C)(=O)=O)o1 (stereo partly drawn) [Example 155, (2S)-2-hydroxy-3,3-dimethyl-N-((5-((methylsulfonyl)(6-phenyl-1,3-benzothiazol-2-yl)methyl)-1,3,4-oxadiazol-2-yl)methyl)butanamide]	26	137
COCCN(C)C(=O)c1cccc(-c2ccc3nc(C(c4nnc(CC5(C)NC(=O)NC5=O)o4)S(C)(=O)=O)sc3c2)c1 (stereo not shown) [Example 227, 3-{2-[methanesulfonyl({5-[(4-methyl-2,5-dioxo-imidazolidin-4-yl)methyl]-1,3,4-oxadiazol-2-yl})methyl]-1,3-benzothiazol-6-yl}-N-(2-methoxyethyl)-N-methylbenzamide]	356	38
Cn1cc(-c2cc3sc(C(c4nnc(CNC(=O)OC(C)(C)C)o4)S(=O)(=O)Cc4ccccc4)nc3cc2F)cn1 (stereo not shown) [Example 166, tert butyl ((5-((benzylsulfonyl)(5-fluoro-6-(1-methyl-1H-pyrazol-4-yl)-1,3-benzothiazol-2-yl)methyl)-1,3,4-oxadiazol-2-yl)methyl)carbamate]	32	23
CS(=O)(=O)C(c1nnc(CNS(N)(=O)=O)o1)c1nc2cc(-c3ccccc3)ccc2s1 (stereo not shown) [Example 249, N-({5-[methanesulfonyl(5-phenyl-1,3-benzothiazol-2-yl)methyl]-1,3,4-oxadiazol-2-yl}methyl) aminosulfonamide]	1	1
CC1(Cc2nnc(C(c3nc4ccc(-c5cccc(C(=O)NC6CC6)c5)cc4s3)S(C)(=O)=O)o2)NC(=O)NC1=O (stereo not shown) [Example 225, N-cyclopropyl-3-{2-[methanesulfonyl({5-[(4-methyl-2,5-dioxo-imidazolidin-4-yl)methyl]-1,3,4-oxadiazol-2-yl})methyl]-1,3-benzothiazol-6-yl}benzamide]	51	5
